Measured values from US20170073337A1, “DIHYDROTHIAZINE AND DIHYDROOXAZINE DERIVATIVES HAVING BACE1 INHIBITORY ACTIVITY” (Shionogi & Co., Ltd., priority 2014, published 2017).
Values after ≈ are worked out from the molar mass of the structure shown. Where two headings read alike, the source gives them in different places.

Assays:
CYP3A4 = biological target: T1, CYP3A4 (Homo sapiens, UniProt P08684); test: CYP inhibition test (CYP3A4); format: in vitro ADME; details: pooled human liver microsomes; terfenadine hydroxylation
T1 construct: The commercially available pooled human liver microsomes are used as an enzyme resource; from tissue; host or cells: pooled human liver microsomes
Source text: (§1) The CYP inhibition test is a test to assess the inhibitory effect of a compound of the present invention towards typical substrate metabolism reactions on CYP enzymes in human liver microsomes. The marker reactions on human main five CYP enzymes (CYP1A2, 2C9, 2C19, 2D6, and 3A4) are used as follows: 7-ethoxyresorufin O-deethylation (CYP1A2), tolbutamide methyl-hydroxylation (CYP2C9), mephenytoin 4′-hydroxylation (CYP2C19), dextromethorphan O-demethylation (CYP2D6), and terfenadine hydroxylation (CYP3A4). The commercially available pooled human liver microsomes are used as an enzyme resource.
(§2) The reaction conditions were as follows: substrate, 0.5 μmol/L ethoxyresorufin (CYP1A2), 100 μmol/L tolbutamide (CYP2C9), 50 μmol/L, S-mephenytoin (CYP2C19), 5 μmol/L dextromethorphan (CYP2D6), 1 μmol/L terfenadine (CYP3A4): reaction time, 15 minutes: reaction temperature, 37° C.; enzyme, pooled human liver microsomes 0.2 mg protein/mL; concentrations of the compound of the present invention, 1, 5, 10, 20 μmol/L (four points).
(§3) Five kinds of substrates, human liver microsomes, and a compound solution of the present invention in […] Hepes buffer were added to a 96-well plate at the composition as described above as a reaction solution. NADPH as a cofactor was added to this 96-well plate in order to initiate metabolism reactions. After the incubation at 37° C.for […], a methanol/acetonitrile=1/1 (v/v) solution was added to stop the reaction. After the centrifugation at 3000 rpm for 15 minutes, resorufin (CYP1A2 metabolite) in the supernatant was quantified by a fluorescent plate reader, and hydroxytolbutamide (CYP2C9 metabolite), 4′-hydroxymephenytoin (CYP2C19 metabolite), dextrorphan (CYP2D6 metabolite), and terfenadine alcohol metabolite (CYP3A4 metabolite) in the supernatant were quantified by LC/MS/MS.
(§4) The sample adding DMSO to a reaction system instead of compound of the present invention solution was adopted as a control (100%) because DMSO was used as a solvent to dissolve a compound of the present invention. Remaining activity (%) was calculated at each concentration of a compound of the present invention, and IC50 value was calculated by reverse presumption by a logistic model using a concentration and an inhibition rate.

[1] = tested on: Aβ production in neuroblastoma SH-SY5Y cells (SH/APPwt); test: β-amyloid (Aβ) production inhibitory effect in cell: 384-well; format: cell-based; details: Homo sapiens, Assay format 384-well
Procedure: Neuroblastoma SH-SY5Y cells (SH/APPwt) with human wild-type β-APT excessively expressed therein were prepared at 4×10^5 cells/mL, and 50 μl portions thereof were inoculated into each well of a 384-well culture plate (Corning) added 0.5 μl of the test compound of the present invention (DMSO solution). The final DMSO concentration was 1%, and the amount of the cell culture was 50 μl. After the incubation was performed for 21 hours from the cell seeding, 5 μl of the culture supernatant was collected from each fraction. The amount of the Aβ in each fraction was measured.
The Aβ amount was measured as follows. 5 μl of a homogeneous time resolved fluoresrenee (HTRF) measurement reagent (Amyloid β1-40 peptide; CIS bio international) and 5 μl of the culture supernatant were put into a 384′well plate (a black plate: Corning) and mixed with each other, and then left standing overnight at 4° C. while the light was shielded. Then, the fluorescence intensity (620 nm and 665 nm) was measured with EnViston (Perkin Elmer life sciences).

Solubility test = format: physicochemical; details: for solubility kinetic at 1 h: kinetic from dmso stock; for solubility kinetic at 16 h: solubility in JP 2nd fluid B, 1% DMSO, *2: shaken for 1 hour at room temperature
Procedure: A 10 mmol/L solution of the compound was prepared with DMSO, and 2 μL of the compound of the present invention solution was added, respectively, to 198 μL of JP 1st fluid (water was added to 2.0 g of sodium chloride and 7.0 ml, of hydrochloric acid to reach 1000 mL) and JP 2nd fluid (See Table 4). The mixture was left standing for 16 hours at 25° C. or shaken for 1 hour at ruom temperature, and the mixture was vacuum-filtered. The […] was ten or one hundred-fold diluted with metbanol/water=1/1 (v/v) or MeCN/MeOH/H2O(=1/1/2), and the compound concent ration in the filtrate was measured with LC/MS or solid phase extraction (SPE)/MS by the absolute calibration method.

CYP1A2 = biological target: T2, CYP1A2 (Homo sapiens, UniProt P05177); test: CYP inhibition test (CYP1A2); format: in vitro ADME; details: pooled human liver microsomes; 7-ethoxyresorufin O-deethylation
T2 construct: The commercially available pooled human liver microsomes are used as an enzyme resource; from tissue; host or cells: pooled human liver microsomes
T2 sequence (P05177 1-516): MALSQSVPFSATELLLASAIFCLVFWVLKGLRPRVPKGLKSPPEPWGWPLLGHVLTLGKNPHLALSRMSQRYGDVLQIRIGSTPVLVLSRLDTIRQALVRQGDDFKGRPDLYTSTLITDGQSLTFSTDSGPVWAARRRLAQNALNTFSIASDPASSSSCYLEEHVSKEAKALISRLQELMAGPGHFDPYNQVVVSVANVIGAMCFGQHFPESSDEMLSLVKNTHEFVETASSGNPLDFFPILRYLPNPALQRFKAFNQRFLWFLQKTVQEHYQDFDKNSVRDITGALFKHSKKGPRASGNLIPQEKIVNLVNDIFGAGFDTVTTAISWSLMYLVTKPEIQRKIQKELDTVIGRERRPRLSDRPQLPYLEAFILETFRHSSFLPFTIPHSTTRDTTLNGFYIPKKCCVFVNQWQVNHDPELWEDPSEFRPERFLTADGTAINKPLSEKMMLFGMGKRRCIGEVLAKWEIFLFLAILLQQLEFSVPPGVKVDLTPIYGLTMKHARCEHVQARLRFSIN
Source text: as §1, §2, §3, §4

CYP2C19 = biological target: T3, CYP2C19 (Homo sapiens, UniProt P33261); test: CYP inhibition test (CYP2C19); format: in vitro ADME; details: pooled human liver microsomes; mephenytoin 4′-hydroxylation
T3 construct: The commercially available pooled human liver microsomes are used as an enzyme resource; from tissue; host or cells: pooled human liver microsomes
Source text: as §1, §2, §3, §4

[2] = biological target: T4, human ether-a-go-go related gene (hERG) channel (Homo sapiens, UniProt Q12809); test: hERG test; format: cell-based; details: % inhibition of IKr tail peak current at 3 uM; CHO cells expressing hERG
T4 construct: expressed in transfected cells; host or cells: CHO cells
Source text: For the purpose of assessing risk of an electrocardiogram QT interval prolongation, effects on delayed rectifier K+ current (IKr), which plays an important role in the ventricular repolarization process of the compound of the present invention, was studied using CHO cells expressing human ether-a-go-go related gene (hERG) channel.
A cell was retained at a membrane potential of […] by whole cell patch clamp method using an automated patch clamp system (QPatch:Sophion Bioscience A/S). After application of leak potential at −50 mV, IKr induced by depolarization pulse stimulation at +20 mV for 2 seconds and, further, repolarization pulse stimulation at −50 mV for 2 seconds was recorded.

CYP2C9 = biological target: T5, CYP2C9 (Homo sapiens, UniProt P11712); test: CYP inhibition test (CYP2C9); format: in vitro ADME; details: pooled human liver microsomes; tolbutamide methyl-hydroxylation
T5 construct: The commercially available pooled human liver microsomes are used as an enzyme resource; from tissue; host or cells: pooled human liver microsomes
Source text: as §1, §2, §3, §4

Metabolic stability test = format: in vitro ADME; details: human liver microsomes, 37° C., 30 minutes, NADPH
Procedure: Using a commercially available pooled human liver microsomes, a compound of the present invention was reacted for a constant time, a remaining rate was calculated by comparing a reacted sample and an unreacted sample, thereby, a degree of metabolism in liver was assessed.
A reaction was performed (oxidative reaction) at 37° C. for 0 minute or 30 minutes in the presence of 1 mmol/L NADPH in 0.2 mL of a buffer (60 mmol/L Tris-HCl pH 7.4, 150 mmol/L potassium chloride, 10 mmol/L magnesium chloride) containing 0.5 mg protein/mL of human liver microsomes. After the reaction, 50 μL of the reaction solution was added to 100 μL of a methanol/acetonltrile=1/1 (v/v), mixed and centrifuged at 3000 rpm for 15 minutes. The compound of the present invention in the supernatant was quantified by LC/MS/MS or solid phase extraction (SPE)/MS, and a remaining amount of the compound of the present invention after the reaction area calculated, letting a compound amount at 0 minute reaction time to be 100%.

Recombinant human BACE1 = biological target: T6, Recombinant human BACE1 (Homo sapiens, UniProt P56817); test: Assay of BACE1 inhibitory activity: 384-well; format: biochemical; details: Assay format 384-well
T6 construct: purchased R&D Systems
Procedure: 5 μL of substrate peptide solution (Biotin-XSEVNLDAEFRHDSGC-Eu: X=ε-amino-n-capronic acid, Eu=Europium eryplate) was added to each well of 384-well plate (a black plate: Corning), and after addition of 0.1 μl of the compound of the present invention (DMSO solution) and 5 μl of Recombinant human BACE1 (R&D Systems), the reaction mixture was incubated at 25° C. for 2 hours. The substrate peptide was synthesized by reacting Cryptate TBPCOOH mono SMP (CIS bio international) with Biotin-XSEVNLDAEFRHDSGC (Peptide Institute, Inc.).
After the incubation for reaction, 10 μl of 8.0 μg/ml Streptavidin-XL665 (CIS bio International) dissolved in phosphate buffer (150 mmol/L K2HPO4-KH2PO4, pH 7.0, 0.008% Triton X-100, 0.8 mol/L KF) was added to each well and left stand at 25° C. for 30 minutes.

[3] = JP 1st fluid, pH 1.2, simulated gastric fluid, read-out: JP1
[4] = JP 2nd fluid B, pH 6.8, aqueous buffer, read-out: JP2_μM

T3 sequence (P33261 whole entry): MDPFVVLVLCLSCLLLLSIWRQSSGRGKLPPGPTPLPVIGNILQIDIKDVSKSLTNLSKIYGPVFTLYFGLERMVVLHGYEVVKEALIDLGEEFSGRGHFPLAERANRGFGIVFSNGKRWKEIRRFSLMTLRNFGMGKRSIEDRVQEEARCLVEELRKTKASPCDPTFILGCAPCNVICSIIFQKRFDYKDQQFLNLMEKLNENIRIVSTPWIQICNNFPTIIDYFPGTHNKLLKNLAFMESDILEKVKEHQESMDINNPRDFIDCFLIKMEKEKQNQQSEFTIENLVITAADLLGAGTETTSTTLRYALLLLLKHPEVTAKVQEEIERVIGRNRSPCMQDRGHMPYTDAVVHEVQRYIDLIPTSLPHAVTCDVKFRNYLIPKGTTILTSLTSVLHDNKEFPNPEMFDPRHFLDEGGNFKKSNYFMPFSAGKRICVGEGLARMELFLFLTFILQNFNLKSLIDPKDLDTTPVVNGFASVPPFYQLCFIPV
T1 sequence (P08684 whole entry): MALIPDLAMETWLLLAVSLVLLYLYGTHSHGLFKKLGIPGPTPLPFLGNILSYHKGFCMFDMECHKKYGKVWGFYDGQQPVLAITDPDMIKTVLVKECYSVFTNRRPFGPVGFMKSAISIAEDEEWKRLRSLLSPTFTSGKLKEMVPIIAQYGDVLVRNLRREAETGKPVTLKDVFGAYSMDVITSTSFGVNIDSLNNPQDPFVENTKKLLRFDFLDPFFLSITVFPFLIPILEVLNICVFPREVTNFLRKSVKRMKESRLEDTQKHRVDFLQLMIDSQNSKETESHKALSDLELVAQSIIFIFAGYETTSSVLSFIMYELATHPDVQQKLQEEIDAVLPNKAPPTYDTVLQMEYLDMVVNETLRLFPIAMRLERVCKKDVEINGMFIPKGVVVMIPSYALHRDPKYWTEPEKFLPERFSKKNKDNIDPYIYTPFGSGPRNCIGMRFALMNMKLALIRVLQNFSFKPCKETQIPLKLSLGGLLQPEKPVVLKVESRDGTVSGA
T6 sequence (P56817 46-501): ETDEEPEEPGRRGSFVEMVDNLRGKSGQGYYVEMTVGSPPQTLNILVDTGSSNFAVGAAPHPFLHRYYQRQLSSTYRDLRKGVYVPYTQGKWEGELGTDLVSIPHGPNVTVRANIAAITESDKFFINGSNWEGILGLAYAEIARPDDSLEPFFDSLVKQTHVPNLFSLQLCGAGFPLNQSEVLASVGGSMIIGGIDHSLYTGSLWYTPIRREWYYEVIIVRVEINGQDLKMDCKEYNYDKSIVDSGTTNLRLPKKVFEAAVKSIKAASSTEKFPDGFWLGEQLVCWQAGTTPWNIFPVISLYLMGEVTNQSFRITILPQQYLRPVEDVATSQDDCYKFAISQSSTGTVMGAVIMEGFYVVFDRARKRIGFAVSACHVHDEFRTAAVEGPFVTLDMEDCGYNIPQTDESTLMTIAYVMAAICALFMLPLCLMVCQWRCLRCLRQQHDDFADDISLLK
T4 sequence (Q12809 whole entry): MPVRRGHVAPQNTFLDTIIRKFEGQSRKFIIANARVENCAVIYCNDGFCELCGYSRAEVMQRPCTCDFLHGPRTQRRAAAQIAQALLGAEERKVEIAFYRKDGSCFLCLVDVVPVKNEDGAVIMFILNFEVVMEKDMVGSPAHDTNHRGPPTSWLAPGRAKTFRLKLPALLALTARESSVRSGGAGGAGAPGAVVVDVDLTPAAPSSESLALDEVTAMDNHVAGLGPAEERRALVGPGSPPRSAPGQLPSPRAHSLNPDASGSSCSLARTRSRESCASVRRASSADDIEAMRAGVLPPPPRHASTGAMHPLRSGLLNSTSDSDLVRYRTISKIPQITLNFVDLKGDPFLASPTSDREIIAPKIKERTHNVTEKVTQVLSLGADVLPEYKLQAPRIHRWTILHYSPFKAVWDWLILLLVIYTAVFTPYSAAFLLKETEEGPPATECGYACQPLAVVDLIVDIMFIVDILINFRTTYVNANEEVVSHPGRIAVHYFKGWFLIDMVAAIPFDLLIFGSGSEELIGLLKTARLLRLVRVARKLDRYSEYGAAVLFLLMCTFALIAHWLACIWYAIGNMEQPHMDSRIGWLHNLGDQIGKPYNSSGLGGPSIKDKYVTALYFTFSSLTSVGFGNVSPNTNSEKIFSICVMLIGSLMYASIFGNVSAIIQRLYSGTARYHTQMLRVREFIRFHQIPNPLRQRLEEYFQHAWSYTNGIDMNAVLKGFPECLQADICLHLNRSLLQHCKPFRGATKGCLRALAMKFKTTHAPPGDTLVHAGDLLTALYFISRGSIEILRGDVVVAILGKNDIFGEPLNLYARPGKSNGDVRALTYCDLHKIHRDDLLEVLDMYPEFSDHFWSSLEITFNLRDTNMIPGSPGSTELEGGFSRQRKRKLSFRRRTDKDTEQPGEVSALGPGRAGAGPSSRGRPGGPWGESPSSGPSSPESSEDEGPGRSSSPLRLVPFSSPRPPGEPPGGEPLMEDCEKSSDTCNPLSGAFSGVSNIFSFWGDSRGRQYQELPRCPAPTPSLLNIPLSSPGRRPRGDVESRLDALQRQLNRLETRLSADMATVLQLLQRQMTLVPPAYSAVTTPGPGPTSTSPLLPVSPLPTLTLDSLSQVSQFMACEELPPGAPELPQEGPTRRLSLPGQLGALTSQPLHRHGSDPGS
T5 sequence (P11712 whole entry): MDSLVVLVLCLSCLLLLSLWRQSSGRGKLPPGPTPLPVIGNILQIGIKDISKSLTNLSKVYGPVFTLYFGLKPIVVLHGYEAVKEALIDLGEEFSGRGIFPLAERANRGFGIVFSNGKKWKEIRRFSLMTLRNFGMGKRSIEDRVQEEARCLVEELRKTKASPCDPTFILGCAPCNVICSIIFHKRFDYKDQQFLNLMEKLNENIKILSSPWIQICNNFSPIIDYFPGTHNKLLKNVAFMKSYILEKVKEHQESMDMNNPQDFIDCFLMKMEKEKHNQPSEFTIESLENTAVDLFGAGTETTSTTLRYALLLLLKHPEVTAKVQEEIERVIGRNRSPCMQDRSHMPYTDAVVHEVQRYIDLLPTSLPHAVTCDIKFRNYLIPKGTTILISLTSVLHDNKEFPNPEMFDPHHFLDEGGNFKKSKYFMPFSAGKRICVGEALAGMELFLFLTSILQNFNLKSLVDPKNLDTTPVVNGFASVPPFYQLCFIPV

| SMILES | IC50 (CYP3A4) [nM] | IC50 [1] [nM] | solubility kinetic at 1 h (Solubility test; [3]) [µM] | solubility kinetic at 16 h (Solubility test; read-out: JP2_μM) [µM] | IC50 (CYP1A2) [nM] | IC50 (CYP2C19) [nM] | hERG_3 uM_% [2] [%] | IC50 (CYP2C9) [nM] | remaining % (Metabolic stability test) [%] | IC50 (Recombinant human BACE1) [nM] | solubility kinetic at 1 h (Solubility test; [4]) [µM] |
| --- | --- | --- | --- | --- | --- | --- | --- | --- | --- | --- | --- |
| C[C@]1(c2cc(NC(=O)c3cnc(OCF)cn3)ccc2F)N=C(N)SCC12CC(F)(F)C2 [Compound I-56] | ≥ 10000 | 0.53 | > 50 | >50 | ≥ 20000 | ≥ 20000 | 37.6 | ≥ 20000 |  |  |  |
| C[C@]1(c2cc(NC(=O)c3ccc(F)cn3)ccc2F)N=C(N)SCC12CC(F)(F)C2 [Compound I-61] | ≥ 10000 | 1.3 | > 50 | >50 | ≥ 20000 | ≥ 20000 |  | ≥ 20000 | 71.5 | 15.4 |  |
| CC[C@H]1SC(N)=N[C@](C)(c2cc(NC(=O)c3ncc(C#N)cc3C)ccc2F)[C@H]1F [Compound I-68] | ≥ 10000 | 0.41 | > 50 |  | ≥ 20000 | ≥ 20000 |  |  |  | 11.6 | 9.1 (≈ 3.91 µg/mL) |
| CC[C@H]1SC(N)=N[C@](C)(c2cc(NC(=O)c3ccc(C#N)cn3)ccc2F)[C@H]1F [Compound I-69] | ≥ 10000 | 0.42 | > 50 | >50 |  |  |  |  | 77.6 | 9.24 |  |
| CCOc1cnc(C(=O)Nc2ccc(F)c([C@@]3(C)N=C(N)S[C@H](C)[C@@H]3F)c2)cn1 [Compound I-84] |  | 2.3 | > 50 |  | ≥ 20000 | ≥ 20000 | 28.8 |  |  | 12.9 | 49.4 (≈ 20.8 µg/mL) |
